Literature values as cited in patent publication US11173114B1, “Method and system for manufacturing and oral soluble films and oral soluble films made by thereby” (NOVA Thin Film Pharmaceuticals LLC, priority 2020, dated 2021).
Where two headings read alike, the source gives them in different places.

Which results are given for `O` [Water]?
Surface tension (head printed □) (25 ° C.): 71.97 mN/m; Surface tension (head printed □) (40 ° C.): 69.56 mN/m; Surface tension (head printed □) (80 ° C.): 62.6 mN/m
